Test results as given in patent US6344564B1, “Fungicidal 2-imidazolin-5-ones and 2-imidazoline-5-thiones” (priority 1992, dated 2002).

Experiments:
Phytophthora infestans = format: in vivo; conditions: concentration at which 75% inhibition of the disease is observed; tomato seedlings (Marmande) sprayed 24 hours before infection with Phytophthora infestans spores; read seven days after infecting vs controls
[1] = system: Helminthosporium gramineum; assay: In vitro test on PDA medium, Helminthosporium gramineum; format: cell-based; conditions: 120 h, dose of 20 ppm in PDA medium, 5 days at 20° C., compared with control dish, read-out: degree of inhibition of the fungus
Pythium vexans = assay: In vitro test on PDA medium, Pythium vexans; conditions: Phytopythium vexans, 120 h, read-out: degree of inhibition of the fungus
Description: (§1) Each test is carried out in the following way: a nutrient medium consisting of potato, glucose and gelose (PDA medium) is introduced in the supercooled state into a series of Petri dishes (100 ml per dish) after sterilization in an autoclave at 120° C.
(§2) While filling the dishes, an acetone solution of the active material is injected into the supercooled medium to obtain the desired final concentration.
(§3) After 24 hours, each dish is cultured by depositing a fragment of ground mycelium arising from a previous culture of the same fungus.
(§4) For each compound tested, the degree of inhibition of the fungus studied is thus determined for a dose of 20 ppm.

Pythium rostratum = assay: In vitro test on PDA medium, Pythium rostratum; conditions: Globisporangium rostratum, 120 h, read-out: degree of inhibition of the fungus
Description: as §1, §2, §3, §4

Alternaria alternata = assay: In vitro test on PDA medium, Alternaria alternata; conditions: 120 h, read-out: degree of inhibition of the fungus
Description: as §1, §2, §3, §4

Plasmopara viticola = assay: In vivo test on Plasmopara viticola (grape downy mildew); conditions: in Vitis vinifera, 168 h, read-out: protection
Puccinia recondita = assay: In vivo test on Puccinia recondita (brown rust of wheat); conditions: read-out: protection

SMILES	melting point [°C]	IC75 (ppm) (Phytophthora infestans)	other results
CSC1=NC2(CCCc3ccccc32)C(=O)N1Nc1ccc(Cl)cc1 (stereo not drawn)	191		
CSC1=NC2(CCCc3ccccc32)C(=O)N1Nc1ccccc1C (stereo not drawn)	174		
CSC1=NC(c2ccccc2)C(=O)N1Nc1ccccc1 (stereo not drawn)	190		
CSC1=NC(C)(c2cccnc2)C(=O)N1Nc1ccccc1 (stereo not drawn)	156		
CSC1=NC(C)(Cc2ccccc2)C(=O)N1Nc1ccccc1 (stereo not drawn)	166		
CSC1=NC(C)(c2ccccc2)C(=O)N1Nc1ccccc1 (racemic) [501 + 502]		110 ppm	
COC1=NC(C)(c2ccccc2)C(=O)N1Nc1ccccc1 (racemic) [503 + 504]		330 ppm	
COC1=NC(C)(c2ccc(Br)cc2)C(=O)N1Nc1ccccc1 (racemic) [505 + 506]		>1000 ppm	
CSC1=NC(C)(c2ccc(F)cc2)C(=O)N1Nc1ccccc1 (racemic) [511 + 512]		110 ppm	
CSC1=NC(C)(c2ccc(F)cc2)C(=O)N1Nc1cccc(F)c1 (racemic) [513 + 514]		110 ppm	
COC1=NC(C)(c2ccc(F)cc2)C(=O)N1Nc1ccccc1 (racemic) [525 + 526]		110 ppm	
COC1=NC(C)(c2ccc(F)cc2)C(=O)N1Nc1cccc(F)c1 (racemic) [527 + 528]		37 ppm	
COC1=NC(C)(c2ccc(F)cc2)C(=O)N1Nc1ccccc1 (single isomer, unassigned) [Compound 525]		37 ppm	
COC1=NC(C)(c2ccc(F)cc2)C(=O)N1Nc1ccccc1 (single isomer, unassigned) [Compound 526]		>1000 ppm	
COC1=NC(C)(c2ccc(F)cc2)C(=O)N1Nc1cccc(F)c1 (single isomer, unassigned) [Compound 527]		4-12 ppm	
CSC1=NC(C)(c2ccccc2)C(=S)N1Nc1ccccc1 (stereo not drawn) [Compound 1, 4-methyl-2-methylthio-4-phenyl-1-phenylamino-2-imidazoline-5-thione]	127		
CSC1=NC(C)(c2ccccc2)C(=O)N1Nc1ccccc1 (stereo not drawn) [Compound 9, 4-methyl-2-methylthio-4-phenyl-1-phenylamino-2-imidazolin-5-one]			inhibition at 20 ppm [1]: 80 to 100%; inhibition at 20 ppm (Pythium vexans): 80 to 100%; inhibition at 20 ppm (Pythium rostratum): 80 to 100%
CSC1=NC(C)(c2ccccc2)C(=O)N1N(C)c1ccccc1 (stereo not drawn) [Compound 22, 4-methyl-1-(N-methyl-N-phenylamino)-2-methylthio-4-phenyl-2-imidazolin-5-one]	124		inhibition at 20 ppm (Pythium vexans): 80 to 100%; inhibition at 20 ppm (Pythium rostratum): 80 to 100%; inhibition at 20 ppm (Alternaria alternata): 80 to 100%

SMILES	melting point [°C]	IC75 (ppm) (Phytophthora infestans)	other results
CSC1=NC(C)(c2ccccc2)C(=O)N1N(C(C)=O)c1ccccc1 (stereo not drawn) [Compound 23, 4-methyl-1-(N-acetyl-N-phenylamino)-2-methylthio-4-phenyl-2-imidazolin-5-one]	132		
CSC1=NC(C)(c2ccccc2)C(=O)N1Cc1ccccc1 (stereo not drawn) [Compound 34, 1-benzyl-4-methyl-2-methylthio-4-phenyl-2-imidazolin-5-one]			inhibition at 20 ppm (Pythium vexans): 80 to 100%; inhibition at 20 ppm (Pythium rostratum): 80 to 100%
CCC1(c2ccccc2)N=C(SC)N(Nc2ccccc2)C1=O (stereo not drawn) [Compound 48, 4-ethyl-2-methylthio-4-phenyl-1-phenylamino-2-imidazolin-5-one]	147		
CSC1=NC2(CCCc3ccccc32)C(=O)N1Nc1ccccc1 (stereo not drawn) [Compound 97]	158		
CSC1=NC2(CCc3ccccc32)C(=O)N1Nc1ccccc1 (stereo not drawn) [Compound 98]	85		
CSC1=NC2(CCCc3ccccc32)C(=O)N1Nc1ccccc1Cl (stereo not drawn) [Compound 104]	168		
CC1=NC(C)(c2ccccc2)C(=O)N1Nc1ccccc1 (stereo not drawn) [Compound 201, 2,4-dimethyl-4-phenyl-1-phenylamino-2-imidazolin-5-one]	135		
COC1=NC2(CCCc3ccccc32)C(=O)N1Nc1ccccc1 (stereo not drawn) [Compound 407]			pest or weed control at 1000 µg/mL (Plasmopara viticola): ≥ 75%; pest or weed control at 1000 µg/mL (Puccinia recondita): ≥ 75%
COC1=NC2(CCc3ccccc32)C(=O)N1Nc1ccccc1 (stereo not drawn) [Compound 410]			pest or weed control at 1000 µg/mL (Plasmopara viticola): ≥ 75%; pest or weed control at 1000 µg/mL (Puccinia recondita): ≥ 75%
COC1=NC(C)(c2cccs2)C(=O)N1Nc1ccccc1 (stereo not drawn) [Compound 486]			pest or weed control at 1000 µg/mL (Plasmopara viticola): ≥ 75%; pest or weed control at 1000 µg/mL (Puccinia recondita): ≥ 75%
CSC1=N[C@@](C)(c2ccccc2)C(=O)N1Nc1ccccc1 [Compound 501, (+)-(4S)-4-methyl-2-methylthio-4-phenyl-1-phenylamino-2-imidazolin-5-one]		37 ppm	
CSC1=NC(C)(c2ccccc2)C(=O)N1Nc1ccccc1 (stereo not drawn) [Compound 502]		>1000 ppm	
COC1=N[C@@](C)(c2ccccc2)C(=O)N1Nc1ccccc1 [Compound 503, (+)-(4S)-4-methyl-2-methoxy-4-phenyl-1-phenylamino-2-imidazolin-5-one]	132	110 ppm	
COC1=NC(C)(c2ccccc2)C(=O)N1Nc1ccccc1 (stereo not drawn) [Compound 504]	132	>1000 ppm	
COC1=NC(C)(c2ccc(Br)cc2)C(=O)N1Nc1ccccc1 (stereo not drawn) [Compound 505]	202	37 ppm	
COC1=NC(C)(c2ccc(Br)cc2)C(=O)N1Nc1ccccc1 (stereo not drawn) [Compound 506]		>1000 ppm	
CSC1=N[C@@](C)(c2ccc(F)cc2)C(=O)N1Nc1ccccc1 [Compound 511]		12-37 ppm	
CSC1=N[C@@](C)(c2ccc(F)cc2)C(=O)N1Nc1cccc(F)c1 [Compound 513]		37 ppm	
